According to paper PMC9019904, “AD Informer Set: Chemical tools to facilitate Alzheimer's disease drug discovery” (Alzheimer's & Dementia : Translational Research & Clinical …, 2022):
In brackets after ≈: the same amount, converted by molar mass.

Key:
[1] = tested on: BV2 (mouse microglia) cell line; assay: pHrodo-myelin phagocytosis/cell viability high content imaging assay: viability (cell count, nuclear area, nuclear intensity)
Outline: (§1)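 Viability was read as total cell count per well by high-content imaging, with mean average nuclear intensity per cell profiling apoptosis (rise early, fall late). Compounds were given at 10 μM for 48 h, pHrodo-myelin being added for the final 20 h. Values are means of two points as % untreated control.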

[2] = tested on: HMC3 (human microglia) cell line; assay: as above; details: HMC3, 10 μM
Outline: as §1

[3] = tested on: BV2 (mouse microglia) cell line; assay: pHrodo-myelin phagocytosis/cell viability high content imaging assay: phagocytosis signal; type: cell-based
Outline: (§2)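 Simultaneous phagocytosis/viability imaging at approximately 22 h after adding pHrodo-myelin. Rising intensity flagged early apoptosis and falling intensity later apoptosis.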

[4] = tested on: HMC3 (human microglia) cell line; assay: as above; type: cell-based
Outline: as §2

[5] = Kinetic solubility in aqueous buffer pH 7.4 by total chemiluminescent nitrogen determination (Analiza); details: aqueous buffer, pH 7.4, aqueous buffer, kinetic from dmso stock
[6] = BV2, 10 μM, cell count <70% control

| Compound | Mouse microglial cytotoxicity at 10 μM (<70% control) ([1]; BV2, 10 μM) | Human microglial cytotoxicity at 10 μM (<70% control) [2] | Inhibition of mouse microglial phagocytosis at 10 μM (<70% control) ([3]; BV2, 10 μM) | Inhibition of human microglial phagocytosis at 10 μM (<70% control) ([4]; HMC3, 10 μM) | solubility kinetic [5] [µM] | Mouse microglial cytotoxicity at 10 μM (<70% control) [1, 6] | Human microglial cytotoxicity at 10 μM (<70% control) ([2]; cell count <70% control) | Mouse microglial cytotoxicity at 10 μM (<70% control) ([1]; 10 μM, BV2) | Inhibition of mouse microglial phagocytosis at 10 μM (<70% control) ([3]; 10 μM, BV2) | Inhibition of human microglial phagocytosis at 10 μM (<70% control) ([4]; 10 μM, HMC3) | Stimulation of mouse microglial phagocytosis at 10 μM (>150% control) ([3]; 10 μM, BV2) |
| --- | --- | --- | --- | --- | --- | --- | --- | --- | --- | --- | --- |
| CCN1CCN(Cc2ccc(NC(=O)c3ccc(C)c(NC(=O)c4cncc(-c5cccs5)c4)c3)cc2C(F)(F)F)CC1 [ALW-II-41-27] | Y (The compound was found to be cytotoxic (cell count threshold: <70% control) when murine immortalized microglial cells were dosed at 10 μM (Y: yes)) | Y (The compound was found to be cytotoxic (cell count threshold: <70% control) when human immortalized microglial cells were dosed at 10 μM (Y: yes)) | Y (The compound was found to inhibit phagocytosis (response threshold: <70% control) when murine immortalized microglial cells were dosed at 10 μM (Y: yes)) | Y (The compound was found to inhibit phagocytosis (response threshold: <70% control) when human immortalized microglial cells were dosed at 10 μM (Y: yes)) | 3.7 (≈ 2.25 µg/mL) | – | – | – | – | – | – |
| Fc1ccc(C(CCCNCC2CCc3[nH]c4ccc(F)cc4c3C2)c2ccc(F)cc2)cc1 (centres unmarked) [MSC1094308] | – | – | Y (The compound was found to inhibit phagocytosis (response threshold: <70% control) when murine immortalized microglial cells were dosed at 10 μM (Y: yes)) | Y (The compound was found to inhibit phagocytosis (response threshold: <70% control) when human immortalized microglial cells were dosed at 10 μM (Y: yes)) | 3.9 (≈ 1.8 µg/mL) | Y (The compound was found to be cytotoxic (cell count threshold: <70% control) when murine immortalized microglial cells were dosed at 10 μM (Y: yes)) | Y (The compound was found to be cytotoxic (cell count threshold: <70% control) when human immortalized microglial cells were dosed at 10 μM (Y: yes)) | – | – | – | – |
| COc1cccc2c(NCc3ccccc3)nc(-n3c(N)nc4ccccc43)nc12 [ML 240] | – | – | Y (The compound was found to inhibit phagocytosis (response threshold: <70% control) when murine immortalized microglial cells were dosed at 10 μM (Y: yes)) | Y (The compound was found to inhibit phagocytosis (response threshold: <70% control) when human immortalized microglial cells were dosed at 10 μM (Y: yes)) | < 0.4 | Y (The compound was found to be cytotoxic (cell count threshold: <70% control) when murine immortalized microglial cells were dosed at 10 μM (Y: yes)) | Y (The compound was found to be cytotoxic (cell count threshold: <70% control) when human immortalized microglial cells were dosed at 10 μM (Y: yes)) | – | – | – | – |
| Cc1cc(Nc2ncc(Cl)c(Nc3ccccc3S(=O)(=O)C(C)C)n2)c(OC(C)C)cc1C1CCNCC1 [Ceritinib] | Y (The compound was found to be cytotoxic (cell count threshold: <70% control) when murine immortalized microglial cells were dosed at 10 μM (Y: yes)) | Y (The compound was found to be cytotoxic (cell count threshold: <70% control) when human immortalized microglial cells were dosed at 10 μM (Y: yes)) | Y (The compound was found to inhibit phagocytosis (response threshold: <70% control) when murine immortalized microglial cells were dosed at 10 μM (Y: yes)) | Y (The compound was found to inhibit phagocytosis (response threshold: <70% control) when human immortalized microglial cells were dosed at 10 μM (Y: yes)) | 25.1 (≈ 14 µg/mL) | – | – | – | – | – | – |
| c1ccc(CNc2nc(NCc3ccccc3)c3ccccc3n2)cc1 [DBeQ] | – | – | Y (The compound was found to inhibit phagocytosis (response threshold: <70% control) when murine immortalized microglial cells were dosed at 10 μM (Y: yes)) | Y (The compound was found to inhibit phagocytosis (response threshold: <70% control) when human immortalized microglial cells were dosed at 10 μM (Y: yes)) | 1.9 (≈ 0.647 µg/mL) | Y (The compound was found to be cytotoxic (cell count threshold: <70% control) when murine immortalized microglial cells were dosed at 10 μM (Y: yes)) | Y (The compound was found to be cytotoxic (cell count threshold: <70% control) when human immortalized microglial cells were dosed at 10 μM (Y: yes)) | – | – | – | – |
| O=C(/C=C/c1ccco1)Nc1ncc(Cc2ccccc2)s1 [Compound 1] | – | – | – | – | < 1.1 | – | – | Y (The compound was found to be cytotoxic (cell count threshold: <70% control) when murine immortalized microglial cells were dosed at 10 μM (Y: yes)) | Y (The compound was found to inhibit phagocytosis (response threshold: <70% control) when murine immortalized microglial cells were dosed at 10 μM (Y: yes)) | Y (The compound was found to inhibit phagocytosis (response threshold: <70% control) when human immortalized microglial cells were dosed at 10 μM (Y: yes)) | – |
| O=C(Nc1ccc2[nH]nc(-c3ccncc3)c2c1)[C@@H]1CCN(CC(=O)N2CCN(c3ccc(-c4ncccn4)cc3)CC2)C1 [SCH772984] | – | – | – | – | 6.2 (≈ 3.64 µg/mL) | – | – | Y (The compound was found to be cytotoxic (cell count threshold: <70% control) when murine immortalized microglial cells were dosed at 10 μM (Y: yes)) | – | Y (The compound was found to inhibit phagocytosis (response threshold: <70% control) when human immortalized microglial cells were dosed at 10 μM (Y: yes)) | Y (The compound was found to stimulate phagocytosis (response threshold: >150% control) when murine immortalized microglial cells were dosed at 10 μM (Y: yes)) |
| CN(C)C/C=C/C(=O)Nc1cc2c(Nc3ccc(F)c(Cl)c3)ncnc2cc1O[C@H]1CCOC1 [Afatinib] | Y (The compound was found to be cytotoxic (cell count threshold: <70% control) when murine immortalized microglial cells were dosed at 10 μM (Y: yes)) | – | Y (The compound was found to inhibit phagocytosis (response threshold: <70% control) when murine immortalized microglial cells were dosed at 10 μM (Y: yes)) | Y (The compound was found to inhibit phagocytosis (response threshold: <70% control) when human immortalized microglial cells were dosed at 10 μM (Y: yes)) | 117 (≈ 56.7 µg/mL) | – | – | – | – | – | – |
| CS[C@@]1(C(=O)Nc2ccc3[nH]nc(-c4ccc(OC(C)C)nc4)c3c2)CCN(CC(=O)N2CC=C(c3ccc(-c4ncn(C)n4)cc3)CC2)C1 [MK-8353] | – | – | – | – | 4.8 (≈ 3.32 µg/mL) | – | – | Y (The compound was found to be cytotoxic (cell count threshold: <70% control) when murine immortalized microglial cells were dosed at 10 μM (Y: yes)) | – | Y (The compound was found to inhibit phagocytosis (response threshold: <70% control) when human immortalized microglial cells were dosed at 10 μM (Y: yes)) | Y (The compound was found to stimulate phagocytosis (response threshold: >150% control) when murine immortalized microglial cells were dosed at 10 μM (Y: yes)) |
